PubChem BioAssay AID192 (DTP/NCI, 2004)
Several values for one entry are separate records, joined by “and”; a condition that tells them apart may be missing. Equal values may be shown once. Toxic doses and inconclusive results are not listed.

System: BDF1 mice, B16 melanoma ip, median survival T/C
Assay: NCI In Vivo Anticancer Drug Screen. Data for tumor model B16 Melanoma (intraperitoneal) in B6D2F1 (BDF1) mice
Conditions: endpoint: median survival time, higher = longer survival
Method in brief: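 Values are ratios of treated (T) to vehicle-control (C) measurements of survival or tumor size in tumor-bearing mice.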

[1] = dose: 25.0 mg/kg/injection, schedule: Q01DX009 (ip), vehicle: Klucel (hydroxypropylcellulose) (HPC)
[2] = dose: 100.0 mg/kg/injection, schedule: Q01DX009 (ip), vehicle: Klucel (hydroxypropylcellulose) (HPC)
[3] = dose: 50.0 mg/kg/injection, schedule: Q01DX009 (ip), vehicle: Klucel (hydroxypropylcellulose) (HPC)

## O=c1oc2c3ccccc3c3ccccc3c2o1
dose: 1.56 mg/kg/injection, schedule: Q01DX009 (ip), vehicle: Klucel (hydroxypropylcellulose) (HPC)
  T/C: 100 % of control
dose: 3.12 mg/kg/injection, schedule: Q01DX009 (ip), vehicle: Klucel (hydroxypropylcellulose) (HPC)
  T/C: 96 % of control
dose: 6.25 mg/kg/injection, schedule: Q01DX009 (ip), vehicle: Klucel (hydroxypropylcellulose) (HPC)
  T/C: 113 % of control
dose: 12.5 mg/kg/injection, schedule: Q01DX009 (ip), vehicle: Klucel (hydroxypropylcellulose) (HPC)
  T/C: 106 % of control
[1]
  T/C: 86 % of control and 96 % of control

## C=Cc1cc(OC)c2c(c1)c(=O)oc1c2cc(OC)c2c(O)ccc(C3OC(C(C)O)C(O)C3O)c21 (stereo unspecified)
[2]
  T/C: 159 % of control
dose: 400.0 mg/kg/injection, schedule: Q01DX009 (ip), vehicle: Klucel (hydroxypropylcellulose) (HPC)
  T/C: 113 % of control

## Cn1c(Cl)nc2c(Cl)nc(Cl)nc21
dose: 1.0 mg/kg/injection, schedule: Q01DX009 (ip), vehicle: saline
  T/C: 105 % of control
dose: 2.0 mg/kg/injection, schedule: Q01DX009 (ip), vehicle: saline
  T/C: 100 % of control
dose: 4.0 mg/kg/injection, schedule: Q01DX009 (ip), vehicle: saline
  T/C: 97 % of control
dose: 8.0 mg/kg/injection, schedule: Q01DX009 (ip), vehicle: saline
  T/C: 95 % of control
dose: 16.0 mg/kg/injection, schedule: Q01DX009 (ip), vehicle: saline
  T/C: 92 % of control
dose: 32.0 mg/kg/injection, schedule: Q01DX009 (ip), vehicle: saline
  T/C: 92 % of control

## O=C1C(NC(=O)C2CCCCC2)=C(N2CC2)C(=O)C(NC(=O)C2CCCCC2)=C1N1CC1
[1]
  T/C: 109 % of control
[3]
  T/C: 102 % of control

## CC(C)C1CC2CCC3C(C)(C(=O)O)CCCC3(C)C2CC1CO (stereo unspecified)
dose: 50.0 mg/kg/injection, schedule: Q01DX009 (ip), vehicle: saline with Tween-80
  T/C: 99 % of control
dose: 50.0 mg/kg/injection, schedule: Q04DX003 (ip), vehicle: saline with Tween-80
  T/C: 100 % of control
dose: 100.0 mg/kg/injection, schedule: Q01DX009 (ip), vehicle: saline with Tween-80
  T/C: 96 % of control
dose: 100.0 mg/kg/injection, schedule: Q04DX003 (ip), vehicle: saline with Tween-80
  T/C: 97 % of control
dose: 200.0 mg/kg/injection, schedule: Q01DX009 (ip), vehicle: saline with Tween-80
  T/C: 94 % of control
dose: 200.0 mg/kg/injection, schedule: Q04DX003 (ip), vehicle: saline with Tween-80
  T/C: 90 % of control

## CC(=O)NS(=O)(=O)c1ccc(NC(=O)c2ccccc2C(=O)O)cc1
[3]
  T/C: 98 % of control
[2]
  T/C: 96 % of control
dose: 200.0 mg/kg/injection, schedule: Q01DX009 (ip), vehicle: Klucel (hydroxypropylcellulose) (HPC)
  T/C: 93 % of control

## C=C1CCN(c2cccc(Cl)c2)C1=O
dose: 1.0 mg/kg/injection, schedule: Q01DX009 (ip), vehicle: saline + alcohol
  T/C: 107 % of control
dose: 2.0 mg/kg/injection, schedule: Q01DX009 (ip), vehicle: saline + alcohol
  T/C: 117 % of control
dose: 4.0 mg/kg/injection, schedule: Q01DX009 (ip), vehicle: saline + alcohol
  T/C: 101 % of control and 115 % of control
dose: 8.0 mg/kg/injection, schedule: Q01DX009 (ip), vehicle: saline + alcohol
  T/C: 101 % of control
dose: 16.0 mg/kg/injection, schedule: Q01DX009 (ip), vehicle: saline + alcohol
  T/C: 95 % of control
dose: 32.0 mg/kg/injection, schedule: Q01DX009 (ip), vehicle: saline + alcohol
  T/C: 96 % of control
dose: 64.0 mg/kg/injection, schedule: Q01DX009 (ip), vehicle: saline + alcohol
  T/C: 100 % of control

## CN(C)CCC[N+]1([O-])c2ccccc2CCc2ccccc21
dose: 4.68 mg/kg/injection, schedule: Q01DX009 (ip), vehicle: saline
  T/C: 97 % of control
dose: 9.37 mg/kg/injection, schedule: Q01DX009 (ip), vehicle: saline
  T/C: 118 % of control
dose: 18.75 mg/kg/injection, schedule: Q01DX009 (ip), vehicle: saline
  T/C: 95 % of control
dose: 37.5 mg/kg/injection, schedule: Q01DX009 (ip), vehicle: saline
  T/C: 100 % of control
dose: 75.0 mg/kg/injection, schedule: Q04DX003 (ip), vehicle: saline
  T/C: 96 % of control

## C=CCC(N)Cc1ccccc1 (stereo unspecified)
dose: 3.12 mg/kg/injection, schedule: Q01DX009 (ip), vehicle: saline
  T/C: 105 % of control
dose: 3.12 mg/kg/injection, schedule: Q04DX003 (ip), vehicle: saline
  T/C: 112 % of control
dose: 6.25 mg/kg/injection, schedule: Q01DX009 (ip), vehicle: saline
  T/C: 105 % of control
dose: 6.25 mg/kg/injection, schedule: Q04DX003 (ip), vehicle: saline
  T/C: 105 % of control
dose: 12.5 mg/kg/injection, schedule: Q01DX009 (ip), vehicle: saline
  T/C: 111 % of control
dose: 12.5 mg/kg/injection, schedule: Q04DX003 (ip), vehicle: saline
  T/C: 97 % of control
dose: 25.0 mg/kg/injection, schedule: Q01DX009 (ip), vehicle: saline
  T/C: 100 % of control
dose: 25.0 mg/kg/injection, schedule: Q04DX003 (ip), vehicle: saline
  T/C: 100 % of control
dose: 50.0 mg/kg/injection, schedule: Q01DX009 (ip), vehicle: saline
  T/C: 110 % of control
dose: 50.0 mg/kg/injection, schedule: Q04DX003 (ip), vehicle: saline
  T/C: 100 % of control
